# Values of other authors, collected in patent publication US6086919A, “Pharmaceutical composition containing the ace inhibitor ramipril and a dihydropyridine compound” (priority 1994, dated 2000).
# Columns and labels:
# vasodilatory effect = settings: in words
# [1] = system: hypertensive patients; patients with clinical signs of congestive heart failure
smiles,measurement,setting,value
CCOC(=O)C1=C(C)NC(C)=C(C(=O)OC)[C@@H]1c1cccc(Cl)c1Cl [S form],Vasodilatory effect compared with the R form,vasodilatory effect,stronger than the vasodilatory effect of the R form
CCOC(=O)C1=C(C)NC(C)=C(C(=O)OC)C1c1cccc(Cl)c1Cl (centres unmarked) [felodipine],Light stability,when exposed to light,decomposed when exposed to light
CCOC(=O)[C@H](CCc1ccccc1)N[C@@H](C)C(=O)N1[C@H](C(=O)O)C[C@@H]2CCC[C@@H]21 [ramipril],Mortality,[1]; clinical signs of congestive heart failure after acute myocardial infarction,reduce mortality
same,Reduction of blood pressure and peripheral arterial resistance,[1]; hypertensive patients,reduction in peripheral arterial resistance and thus a reduction of the blood pressure without a compensatory rise in heart rate
same,Sensitivity of the substance,stability,"sensitive to high temperature, moisture or compression"
